Measurements taken from patent US6734171B1, “Methods for encapsulating nucleic acids in lipid bilayers” (Inex Pharmaceuticals Corp., priority 1997, dated 2004).

Columns and labels:
Unseparated spleen cells = test: Cell proliferation assay (3H-thymidine) of spleen cells stimulated in vitro; format: cell-based, Balb/c mice; settings: spleen cells of Diluent treated mice; label = in vitro stimulation
Method: Mice, 12 per group, were injected intravenously (i.v.) with TCS formulations as described below. In this study four injections were given at intervals of seven days over a period of five weeks (Table 4). Group A was injected with INEX324 expressing LacZ reporter gene on day 0, 7 and 14 (150 μl per mouse of INEX324-LacZ, 75 μg DNA). Two weeks after the last LacZ injection, mice were injected with INEX324-Luc (150 μl per injection, 80 μg DNA). To evaluate the immunogenicity of INEX324 lipid, Group B received three injections of INEX324 empty vesicles (150 μl per mouse) and one injection of INEX324-Luc two weeks later. Group C served as a base-line control, mice were given 150 μl of diluent at each time point. Mice from Group D received three diluent injections, followed by a single injection of INEX324-Luc, and served as a positive control for luciferase expression. Three mice from each group were sacrificed at 18 hours after each injection, or 24 hours prior to the following injection. Blood was collected and the serum samples were analyzed for the presence of antibodies specific for β-galactosidase using an ELISA assay. […] Splenocytes were monitored for expression, of differentiation (CD4, CD8, CD22, CD11b) and activation (CD86, MHC-II, Ly-6A/E, CD54 and CD25) markers. […]
Unseparated spleen cells were tested in vitro for their ability to proliferate upon re-stimulation with the empty INEX324 vesicles, INEX324-LacZ formulation, LacZ, transgene product (r-β-galactosidase), or with polyclonal activators for T (Concanavalin A, Con A) and […] (Lipopolysaccharide, LPS). […] An isolated cell suspension was separated from debris by removing the supernatant and the cell number was quantified using a Coulter counter (Coulter Instruments, Miami, Fla.). […] The levels of incorporated radioactivity were measured in a scintillation counter. ^3H-thymidine incorporation is expressed total ^3H-incorporation (DPMs), or as a mean percentage (±SD) of media control and plotted versus lipid concentration values.

Splenocytes = test: Cytokine release (IL-2, IL-4 ELISA) of splenocytes stimulated in vitro; format: cell-based, Balb/c mice; settings: spleen cells of Diluent treated mice; label = in vitro stimulation
Method: Splenocytes (1×10^6 cells/ml) were either nonstimulated or cultured in the presence of various concentrations of either empty INEX324 vesicles, or INEX324-LacZ formulation at different times after culture initiation (24 h and 48 h). The levels of cytokine in the cell culture supernatant (Interleukin-2 and Interleukin-4) were determined by an ELISA assasy (below).
Cytokine-specific ELISA assays were performed using the protocol and specific anti-interleukin antibodies provided by reagent mini-kit (Endogen, Woburn MA). Briefly, Immuno-module (F8-maxisorb) 96-well plates were coated overnight with anti-IL-2, or anti-IL-4 antibody. Plates were washed with PBS-Tween 20 (0.05%) and blocked with PBS-Tween 20-BSA (2%) for 1 hour at room temperature. Supernatant samples and standards (diluted in blocking buffer) were added and allowed to incubate overnight. Plates were washed and biotinylated anti-IL-2 or anti-IL-4 antibody was added. After 2 hours incubation, plates were washed and HRP-Extravidin, followed by TMB, was added to each well. Plates were read on a plate reader at OD450nm. The amount of released cytokine was determined by comparing the O.D. of test supernatants to a standard curve of serially diluted cytokine standards.

Substance | 3H-incorporation (Unseparated spleen cells) [DPMs] | Cytokine release IL-2 (Splenocytes) [OD450] | Cytokine release IL-4 (Splenocytes) [OD450]
Lipopolysaccharide [LPS] | 35676 |  | 
r-β-gal: transgene product (r-β-galactosidase) | 18336 | 0.059 | 0.103
Concanavalin A [ConA] | 215542 | 0.615 | 0.138
